Experiments:
[1] = test system: LPS-induced sepsis in C57BL6J mice; assay: LPS-induced sepsis animal model, viability; format: in vivo, mouse; details: for Viability: 15 mg/kg i.p. before 50 mg/kg LPS
Description: 50 mg/kg of lipopolysaccharide (LPS) administration dose corresponds to the ‘half lethal dose’ that causes death of one half of the population within 24 hours. […] The animal experiment was conducted with six 8-week-old male C57BL6J mice per group. Each mouse was intraperitoneally administered 15 mg/kg of Compound 1 or pretreated with 100 μL of 10% DMSO (vehicle control). 30 minutes later, 50 mg/kg lipopolysaccharide was intraperitoneally injected into each mouse, and the viability was examined for 80 hours, and the results are shown in FIG. 9 and Table 2.

NCI-H295R cells = assay: Cortisol production, Cushing's syndrome cell model, ELISA; format: cell-based, human; details: 0.1, 0.5 and 1 μM; 8-Br-cAMP 0.5 mM; FIG. 14
Description: NCI-H295R cells (ATCC #CRL-2128), which are a human adrenocortical carcinoma cell line, were seeded at a density of 2.5×10^5 cells/well in a 24-well plate. The cells were cultured for 48 hours, and then they were pretreated with Compound 1 (0.1 μM, 0.5 μM, and 1 μM) for 12 hours. Furthermore, to increase cortisol synthesis, the cells were treated with 8-bromoadenosine […] (8-Br-CAMP) at a concentration of 0.5 mM, and then re-treated with Compound 1, and allowed to react for 24 hours. After the reaction, the cell culture medium was collected, and the amount of cortisol produced in the cells was measured using an ELISA kit, and the results are shown in FIG. 14.

[2] = test system: GvHD in vivo model in BALB/c mice; assay: Graft-versus-host disease (GvHD) animal model; parameters: species or system mouse; details: for production of CD4+IFNg+T cells, mean value: spleen, day 14
Description: 5-week-old BALB/c male mice were acclimatized for 1 week and irradiated with 800 cGy of total body irradiation. Then, 5×10^6 bone marrow cells derived from C57BL/6J and 1×10^7 spleen cells were intravenously injected to establish a GvHD in vivo model (positive control). A syngeneic control group was established in the same manner as above, but BALB/c-derived bone marrow cells were selected as the injected bone marrow cells. Compound 1 Daily was established by daily oral gavage of 1 mg/kg of Compound 1 to the GvHD in vivo model. Compound 1 Initial only was established by orally administering 1 mg/kg of Compound 1 to the GvHD in vivo model only for 6 days after model induction. The therapeutic effect of Compound 1 was verified by measuring the change in body weight every 3 days for each control and experimental group established as above, and the results are shown in FIG. 11 and Table 4. On day 14, the production of CD4^+IFNg^+T cells, which is a major factor inducing GvHD, was measured in the spleens isolated from the mice, and the results are shown in FIG. 12 and Table 5.

CT26 colorectal cancer = CT26 colorectal cancer tumor model; format: in vivo, nude mice; details: 1.0 mg/kg, FIG. 22
Description: A colorectal cancer model was established by subcutaneously transplanting CT26 colorectal cancer cell line into nude mice. The colorectal cancer model was divided into two groups: vehicle administration group and Compound 1 administration group. […] Similar to Experimental Example 13, tumor size was calculated before drug administration and on days 3, 7, 10, 14, 18, 22, and 24 after drug administration, and body weight was measured before drug administration and on days 7, 14 and 22 after drug administration, which are shown in FIG. 22.

[3] = Growth inhibition of normal cells, Cell Counting Kit-8; format: cell-based, human (BJ); hamster (CHO); murine (Raw264.7); mouse (L929); details: normal cells, concentration of up to less than 40 μM, 10% FBS, FIG. 15
Description: (§1) In order to verify the growth inhibitory effect of Compound 1 on various normal and cancer cell lines, 25 types of cell lines listed in Table 7 below were tested. In detail, each cell was seeded at a density of 2×10^4 cells/well in a 96-well plate and cultured for 24 hours, and then the medium was replaced with a medium comprising 0.5% (for cancer cells) or 10% (for normal cells) FBS, and Compound 1 was treated at various concentrations. 24 hours later, 10 μL of Cell Counting Kit-8 (Dojindo Molecular Technologies) was added, and 1 hour later, absorbance at 480 nm was measured using a microplate reader (TECAN SPARK), and the results are shown in FIGS. 15 to 21.

[4] = test system: normal cells (BJ, CHO, Raw264.7, L929); assay: as above; format: cell-based, human (BJ); hamster (CHO); murine (Raw264.7); mouse (L929); details: concentrations of up to less than 40 μM, 24 hours
Description: as §1

[5] = test system: acute kidney ischemic reperfusion (IR) injury in C57BL6J mice; assay: Acute kidney ischemic reperfusion (IR) injury animal model; format: in vivo, mouse; details: 4 μg/kg and 8 μg/kg, tail vein
Description: Vehicle and Compound 1 (4 μg/kg or 8 μg/kg) were administered to 8-week-old male C57BL6J mice via the tail vein 24 hours before, 1 hour before, and 12 hours after ischemic reperfusion (IR) surgery. The surgery was performed by blocking the artery leading to the kidney to induce ischemia for 37 minutes. The blocked artery was released, and 24 hours later, the mice were anesthetized and autopsied. Other part was used to synthesize cDNA, and a kidney damage marker, NGAL was identified by real-time PCR. And serum was separated from the blood, and creatinine, which is a kidney damage marker in the serum, was examined, and the results are shown in FIG. 3.

[6] = test system: cerulein-induced acute pancreatitis in mice; assay: Cerulein-induced acute pancreatitis animal model; format: in vivo, mouse; details: 5 μg/kg or 10 μg/kg, tail vein; versus Cerulein; FIG. 8
Description: Acute pancreatitis was induced by intraperitoneal administration of cerulein (50 μg/kg) dissolved in saline to 8-week-old male mice. Compound 1 was administered at a concentration of 5 μg/kg or 10 μg/kg into the tail vein 24 hours and 1 hour before cerulein administration, and cerulein was intraperitoneally administered six times at 1-hour intervals. 18 hours after the first cerulein administration, the mice were anesthetized, the serum was separated, and the amylase and lipase activities in the serum were measured, which are shown in FIG. 8.

[7] = versus vehicle-treated IR, FIG. 2

For `CC(C(=O)NNc1ccc(F)cc1)n1cc(-c2cc(F)cc3c2-c2ccccc2C3(O)C(F)(F)F)cn1` (centres unmarked) [Compound 1, 2-(4-(2-fluoro-9-hydroxy-9-(trifluoromethyl)-9H-fluoren-4-yl)-1H-pyrazol-1-yl)-N′-(4-fluorophenyl)propanehydrazide], the Viability ([1]; 0 h) was 100%, the Viability ([1]; 20 h) was 100% and the Viability ([1]; 24 h) was 83.3%. The Viability ([1]; 28 h) was 83.3%, the Viability ([1]; 32 h) was 83.3% and the Viability ([1]; 36 h) was 66.7%. The Viability ([1]; 40 h) was 66.7%, the Viability ([1]; 44 h) was 66.7% and the Viability ([1]; 48 h) was 66.7%. For the same compound, the Viability ([1]; 50 h) was 66.7%, the Viability ([1]; 60 h) was 50% and the Viability ([1]; 70 h) was 50%. For the same compound, the Viability ([1]; 80 h) was 50%, the “viability in sepsis-induced animal model (in words)” value ([1]; 15 mg/kg i.p., p<0.01 versus LPS+vehicle, FIG. 9) was “had the effect of improving the viability” and the cortisol production (NCI-H295R cells) was “significantly inhibited by the administration of Compound 1, and this inhibition showed a concentration-dependent tendency”. For the same compound, the “body weight recovery (in words)” value ([2]; Daily and Initial only, 1 mg/kg oral, versus control, FIG. 11) was “significantly recovered”, the “production of allogeneic CD4+IFNg+T cells (in words)” value ([2]; Daily and Initial only, 1 mg/kg oral, versus control, FIG. 12) was “significantly reduced” and the “production of CD4+IFNg+T cells, mean value” ([2]; Daily, 1 mg/kg oral gavage) was 10.28. For the same compound, the “production of CD4+IFNg+T cells, mean value” ([2]; Initial only (6 days), 1 mg/kg oral) was 13.04, the body weight change (CT26 colorectal cancer) was “Neither the vehicle administration group nor the compound 1 administration group showed any change in the body weight” and the “tumor growth (in words)” value (CT26 colorectal cancer; p<0.05 versus vehicle) was “statistically significantly delayed and inhibited”. For the same compound, the viability at 24 h [3] was no less than 70%, the “toxicity on normal cells” value [4] was “does not exhibit toxicity on normal cells” and the “NGAL RNA expression” value ([5]; kidney, real-time PCR, p<0.01 versus IR+Vehicle, FIG. 3) was “significantly reduced”. For the same compound, the serum creatinine ([5]; p<0.01 versus IR+Vehicle, FIG. 3) was “significantly reduced”, the “apoptosis (TUNEL staining) of kidney tissue” value [5, 7] was “significant reduction in the apoptosis” and the “renal tubular tissue damage (H&E staining)” value [5, 7] was “significant reduction in the renal tubular tissue damage”. For the same compound, the serum amylase activity [6] was “decreased by administration of Compound 1 in a dose-dependent manner” and the serum lipase activity [6] was “decreased by administration of Compound 1 in a dose-dependent manner”.

— patent US20260345595A1, “NOVEL FLUORENE DERIVATIVE COMPOUND AND USE THEREOF” (JD BIOSCIENCE INC., priority 2022, published 2026)
